Reference: patent US11242361B2 (Proteostasis Therapeutics, Inc., priority 2013, dated 2022)

What follows are molecules tested against USP14 (Homo sapiens (Human), UniProt P54578) (assay: USP14 Inhibition Assay). Settings: average value from a minimum of two experimental determinations.
USP14, sequence (P54578 whole entry, looked up): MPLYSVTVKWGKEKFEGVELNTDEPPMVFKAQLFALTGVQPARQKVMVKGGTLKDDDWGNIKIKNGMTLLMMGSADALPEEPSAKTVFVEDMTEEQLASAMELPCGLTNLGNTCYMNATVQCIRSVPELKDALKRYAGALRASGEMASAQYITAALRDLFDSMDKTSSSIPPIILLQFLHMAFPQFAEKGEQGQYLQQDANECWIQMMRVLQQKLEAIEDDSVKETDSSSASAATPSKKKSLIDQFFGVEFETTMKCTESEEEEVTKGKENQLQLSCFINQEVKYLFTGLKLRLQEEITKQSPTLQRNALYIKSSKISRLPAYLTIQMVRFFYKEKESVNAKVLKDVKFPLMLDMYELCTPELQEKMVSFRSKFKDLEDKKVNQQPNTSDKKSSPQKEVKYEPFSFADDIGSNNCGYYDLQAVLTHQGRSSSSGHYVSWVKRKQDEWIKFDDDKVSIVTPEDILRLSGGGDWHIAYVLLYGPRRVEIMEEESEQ
Format: biochemical
Experimental: Example 17: USP14 Inhibition Assay
“I” in the Table below designates an IC50 of >5 μM, “II” in the Table below designates and IC50 between 0.5 and 5 μM, and “III” designates an IC50<0.5 μM. The IC50 values in the Table below represent the average value from a minimum of two experimental determinations.
With `Cc1c(C(=O)CN2CCC[C@H]2C)c2ncc(Br)cc2n1-c1ccc(C#N)cc1` [Compound 306] the “IC50 Category” value was “IIII”.

Same assay, conditions: average value from a minimum of two experimental determinations, read-out: IC50 Category
In the case of `Cc1c(C(=O)CN2CCCCC2)c2cc(N)ccc2n1-c1ccc(C#N)cc1` [Compound 186, 4-(5-Amino-2-methyl-3-(2-(piperidin-1-yl)acetyl)-1H-indol-1-yl)benzonitrile], the IC50 is reported as < 500 nM.
`Cc1c(C(=O)CN2CCCC2)c2ccccc2n1-c1ccc(Cl)cc1` [Compound 88] was tested, and the IC50 was < 500 nM.
For `Cc1c(C(=O)CN2CCC[C@@H]2C)c2ncc(Br)cc2n1-c1ccc(C#N)cc1` [Compound 307], the IC50 was < 500 nM.
`CC(=O)Nc1ccc2c(c1)c(C(=O)CN1CCCCC1)c(C)n2-c1ccc(C#N)cc1` [Compound 191, N-(1-(4-Cyanophenyl)-2-methyl-3-(2-(piperidin-1-yl)acetyl)-1H-indol-5-yl)acetamide] was tested, and the IC50 was < 500 nM.
In the case of `Cc1c(C(=O)CN2CCCCC2)c2ncc(CN3CCCC3)cc2n1-c1ccc(C#N)cc1` [Compound 360, 4-(2-Methyl-3-(2-(piperidin-1-yl)acetyl)-6-(pyrrolidin-1-ylmethyl)-1H-pyrrolo[3,2-b]pyridin-1-yl)benzonitrile], the IC50 is reported as < 500 nM.
`Cc1c(C(=O)CN2CCC(CNCC(=O)O)CC2)c2ncc(Br)cc2n1-c1ccc(Cl)cc1` [Compound 386] was tested, and the IC50 was > 5000 nM.
In the case of `Cc1[nH]c2cccnc2c1C(=O)CN1CCCCC1` [Compound 128, 1-(2-Methyl-1H-pyrrolo[3,2-b]pyridin-3-yl)-2-(piperidin-1-yl)ethan-1-one], the IC50 is reported as > 5000 nM.
For `C=Cc1ccc2c(C(=O)CN3CCCCC3)c(C)n(-c3ccc(C#N)cc3)c2c1` [Compound 206, 4-(2-Methyl-3-(2-(piperidin-1-yl)acetyl)-6-vinyl-1H-indol-1-yl)benzonitrile], the IC50 was < 500 nM.
`COCCOc1cnc2c(C(=O)CN3CCC(OC)CC3)c(C)n(-c3ccc(Cl)cc3)c2c1` [Compound 363] was tested, and the IC50 was < 500 nM.
With `COc1c(C(=O)CN2CCCCC2)c2ccccc2n1-c1ccc(Cl)cc1` [Compound 132, 1-(1-(4-Chlorophenyl)-2-methoxy-1H-indol-3-yl)-2-(piperidin-1-yl)ethan-1-one] the IC50 was > 5000 nM.
`Cc1c(C(=O)CN2CCCCC2)c2cnccc2n1-c1ccc(C#N)cc1` [Compound 151, 4-(2-Methyl-3-(2-(piperidin-1-yl)acetyl)-1H-pyrrolo[3,2-c]pyridin-1-yl)benzonitrile] gave an IC50 of 500 to 5000 nM.
`Cc1c(C(=O)CN2CCC(O)CC2)c2ncc(CCC(=O)NCCCC#N)cc2n1-c1ccc(C#N)cc1` [Compound 362] was tested, and the IC50 was < 500 nM.
`N#Cc1ccc(-n2c(C(F)(F)F)c(C(=O)CN3CCCCC3)c3ncccc32)cc1` [Compound 372] was tested, and the IC50 was > 5000 nM.
For `Cc1c(C(=O)CN2CCC(O)CC2)c2ccccc2n1-c1ccccn1` [Compound 397], the IC50 was > 5000 nM.
In the case of `Cc1c(C(=O)CN2CCCCC2)c2nc(F)ccc2n1-c1ccc(C#N)cc1` [Compound 165], the IC50 is reported as < 500 nM.
`CCNC(=O)/C=C/c1cnc2c(C(=O)CN3CCCCC3)c(C)n(-c3ccc(C#N)cc3)c2c1` [Compound 305, (E)-3-(1-(4-Cyanophenyl)-2-methyl-3-(2-(piperidin-1-yl)acetyl)-1H-pyrrolo[3,2-b]pyridin-6-yl)-N-ethylacrylamide] was tested, and the IC50 was < 500 nM.
For `CCN(C)C(=O)Cc1cnc2c(C(=O)CN3CCCCC3)c(C)n(-c3ccc(C#N)cc3)c2c1` [Compound 382, 2-(1-(4-Cyanophenyl)-2-methyl-3-(2-(piperidin-1-yl)acetyl)-1H-pyrrolo[3,2-b]pyridin-6-yl)-N-ethyl-N-methylacetamide], the IC50 was < 500 nM.
`Cc1c(C(=O)CN2C[C@H](C)C[C@H](C)C2)c2ncc(Br)cc2n1-c1ccc(C#N)cc1` [Compound 338] was tested, and the IC50 was > 5000 nM.
`COC(=O)c1ccc2c(C(=O)CN3CCCCC3)c(C)n(-c3ccc(Cl)cc3)c2c1` [Compound 171] was tested, and the IC50 was < 500 nM.
With `Cc1c(C(=O)CN2CCCCC2)c2ncc(Br)cc2n1-c1ccc(C#N)cc1` [Compound 297, 4-(6-Bromo-2-methyl-3-(2-(piperidin-1-yl)acetyl)-1H-pyrrolo[3,2-b]pyridin-1-yl)benzonitrile] the IC50 was < 500 nM.
`Cc1c(C(=O)CN2CCCCC2)c2ncccc2n1-c1ccc(Cl)nc1` [Compound 149] showed an IC50 of 500 to 5000 nM.
For `CC(=O)NCc1ccc2c(c1)c(C(=O)CN1CCCCC1)c(C)n2-c1ccc(C#N)cc1` [Compound 183, N-((1-(4-Cyanophenyl)-2-methyl-3-(2-(piperidin-1-yl)acetyl)-1H-indol-5-yl)methyl)acetamide], the IC50 was < 500 nM.
`Cc1c(C(=O)CN2CCC(NC(=O)OC(C)(C)C)CC2)c2ccccc2n1-c1ccc(Cl)cc1` [Compound 142] gave an IC50 of 500 to 5000 nM.
In the case of `Cc1c(C(=O)CN2CCCCC2)c2ccc(C#N)cc2n1-c1ccc(C#N)cc1` [Compound 175], the IC50 is reported as < 500 nM.
